Patent publication US8324280B2, “Treatment of prostate cancer with DDC inhibitor” (The University of British Columbia, priority 2008, dated 2012)

Legend:
[1] = test system: PC3 cells; assay: cAMP assay in PC3 cells; format: cell-based
Description: (§1) PC3 and LNCaP cells were seeded in 12-well plates at a density of 1.5×10^5 cells/well. The next day, cells were gently washed three times with serum-free media to remove excess FBS and grown for a further 24 hours in the absence of serum. Cells were then stimulated with various concentrations of DA for 15 minutes or 5-HT for 10 minutes at 37° C. Cells were lysed and intracellular cAMP levels were determined using the cAMP Biotrak Enzymeimmunoassay System (Amersham Biosciences) following the manufacturer's instructions. Assays were performed in triplicate with two independent trials.

[2] = test system: LNCaP cells; assay: cAMP assay in LNCaP cells; format: cell-based, human; details: all concentrations; DA 15 minutes, 5-HT 10 minutes
Description: as §1

[3] = test system: AR; assay: AR transactivation assay (pARR3-tk-Luc) in AR transfected PC3 cells; format: cell-based, human
Excerpt: (§2) PC3 and LNCaP cells were transfected, treated with R1881 and used for luciferase assays, as described previously. Briefly, human AR expression plasmid (pcDNA3.1-hAR) and AR-regulated luciferase reporters, pARR3-tk-Luc or pPSA-630 bp-Luc (−630/+12 bp of the 5′ PSA flanking region) {Snoek, 1998 #136}, were cotransfected into cells, along with DDC expression plasmid (pDEST12.2-DDC) or control empty vector (pDEST12.2). Firefly luciferase values were normalized to renilla luciferase (PRL-TK reporter; Promega Corp.) and expressed as relative luciferase units (RLU).
Transactivation assays for AR were also performed in PC3 cells treated with dopamine (DA) and serotonin (5-HT, 5-hyroxytyrptamine), which were purchased from Sigma. As described above, cells were transfected with pcDNA3.1-hAR, pRL-TK-renilla and pARR3-tk-Luc reporter but DDC was excluded. Cells were then treated with or without 1 nM R1881 and varying concentrations of pure DA or 5-HT in 5% dextran-coated charcoal stripped FBS (DCC-FBS) for 24 hours before harvest and luciferase assay.

[4] = test system: LNCaP cells; assay: MTS cell proliferation assay, androgen-dependent LNCaP cells; format: cell-based, human; details: 10 μM, 8 days
Description: Cell proliferation assays were performed using the 3-(4,5-dimethylhiazol-2-yl)-5-(3-carboxymethoxyphenyl)-2-(4-sulfophenyl)-2H-tetrazolium Assay (MTS) according to the manufacturer's protocol, with minor modifications (Promega). LNCaP cells were plated in 96-well plates at a density of 3000 cells per well and incubated in RPMI medium containing 5% CSS for one day. On the following day, the DDC inhibitors, carbidopa (25 and 50 μM) and NSD-1015 (10 μM)±0.1 nM R1881 were added to each well in charcoal-stripped serum (CSS; Hyclone, VWR) RPMI media. The cells were harvested at days 0, 2, 4, 6 and 8, with a medium change every 3 days. Each time point was measured with 6 replicates.
(§3) Student's t-test (two-sample equal variance) was used to evaluate statistically significant differences. All calculated p-values were two-sided and those less than 0.05 were considered statistically significant.

[5] = test system: C4-2 cells; assay: MTS cell proliferation assay, androgen-independent C4-2 cells; format: cell-based, human; details: 10 μM, 6 days
Description: Cell proliferation assays were performed using the 3-(4,5-dimethylhiazol-2-yl)-5-(3-carboxymethoxyphenyl)-2-(4-sulfophenyl)-2H-tetrazolium Assay (MTS) according to the manufacturer's protocol, with minor modifications (Promega). C4-2 cells were plated in 96-well plates at a density of 750 cells per well in RPMI medium containing 5% CSS for 1 day. On the following day, the DDC inhibitors, carbidopa (25 μM) and NSD-1015 (10 μM)±0.1 nM R1881 were added to each well in charcoal-stripped serum (CSS; Hyclone, VWR) RPMI media. The cells were harvested at days 0, 2, 4, and 6, with a medium change every 3 days. Each time point was measured with 6 replicates.
as §3

[6] = target: T1, DDC (Homo sapiens, UniProt P20711); assay: Dopamine ELISA on conditioned medium of PC3 cells overexpressing DDC; format: cell-based; details: 1 μM NSD-1015, 24 hours, 1 nM R1881
T1 construct: expressed in transfected cells; host or cells: PC3 cells, co-transfected with pcDNA3.1-AR
T1 sequence (P20711 1-480): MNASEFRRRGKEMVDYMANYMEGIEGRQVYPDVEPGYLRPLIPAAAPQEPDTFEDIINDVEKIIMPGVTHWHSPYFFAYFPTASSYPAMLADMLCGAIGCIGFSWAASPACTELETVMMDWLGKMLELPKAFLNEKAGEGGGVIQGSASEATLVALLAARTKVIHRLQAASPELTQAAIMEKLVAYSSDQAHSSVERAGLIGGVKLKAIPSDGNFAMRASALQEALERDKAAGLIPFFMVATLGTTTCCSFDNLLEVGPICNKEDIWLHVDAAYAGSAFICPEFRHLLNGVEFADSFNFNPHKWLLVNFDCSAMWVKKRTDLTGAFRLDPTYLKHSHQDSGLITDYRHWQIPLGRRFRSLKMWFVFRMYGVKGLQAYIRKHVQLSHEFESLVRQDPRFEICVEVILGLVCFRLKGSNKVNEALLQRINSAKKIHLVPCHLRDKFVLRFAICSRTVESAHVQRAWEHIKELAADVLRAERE
Description: (§4) PC3 cells were seeded in 12-well plates at a density of 1.5×10^5 cells/well and transfected the following day with pcDNA3.1-AR and pDEST12.2-DDC or pDEST12.2 empty vector control, as described above for transactivation assays. The next day, media was changed to 5% DCC-FBS containing 1 nM R1881. Conditioned culture media was removed 24 hours later and stored at −80° C. A 100 μL volume of media was used for the competitive enzyme-linked immunosorbent assay (ELISA). Dopamine was assayed using the Dopamine Research Enzyme Immunoassay kit (Rocky Mountain Diagnostics) following the manufacturer's instructions. PC12 cells, used as a positive control, were grown to 70% confluency (12-well plates) and conditioned media was collected 24 hours later for assay, as above. Secreted DA levels from PC3 and PC12 cells were determined in the presence and absence of 1 μM NSD-1015 (3-hydroxybenzylhydrazine) DDC enzymatic inhibitor (Sigma). All ELISAs were performed in triplicate with two independent trials.

[7] = target: T2, DDC (Rattus norvegicus, UniProt P14173); assay: Dopamine ELISA on conditioned medium of PC12 cells; format: cell-based; details: 1 μM NSD-1015, 24 hours
T2 construct: PC12 cells were not transfected or treated with R1881 but were incubated 24 hours with or without NSD-1015; endogenous in cells; host or cells: PC12 rat adrenal pheochromocytoma cells
T2 sequence (P14173 1-480): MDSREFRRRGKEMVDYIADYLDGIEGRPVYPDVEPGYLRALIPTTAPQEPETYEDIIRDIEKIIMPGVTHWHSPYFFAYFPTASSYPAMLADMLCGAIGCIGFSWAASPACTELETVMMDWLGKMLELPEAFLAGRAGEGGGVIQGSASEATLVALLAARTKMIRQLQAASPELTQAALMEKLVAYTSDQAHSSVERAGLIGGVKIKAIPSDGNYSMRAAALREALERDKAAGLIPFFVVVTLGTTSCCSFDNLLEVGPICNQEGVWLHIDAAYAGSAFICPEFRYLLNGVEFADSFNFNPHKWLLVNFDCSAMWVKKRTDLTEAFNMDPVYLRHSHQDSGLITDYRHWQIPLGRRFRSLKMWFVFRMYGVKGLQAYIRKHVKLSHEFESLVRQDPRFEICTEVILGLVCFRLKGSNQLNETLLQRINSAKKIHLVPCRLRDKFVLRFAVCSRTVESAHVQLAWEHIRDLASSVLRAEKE
Description: as §4

[8] = test system: AR; assay: AR transactivation assay (pARR3-tk-Luc) in LNCaP cells; format: cell-based, human; details: endogenous AR, 24 hours
Excerpt: as §2

[9] = target: T3, AR ligand binding domain (Rattus norvegicus, UniProt P15207); assay: In vitro hydroxylapatite pulldown ligand binding assay
T3 construct: purchased PanVera
T3 sequence (P15207 651-882 limits assumed): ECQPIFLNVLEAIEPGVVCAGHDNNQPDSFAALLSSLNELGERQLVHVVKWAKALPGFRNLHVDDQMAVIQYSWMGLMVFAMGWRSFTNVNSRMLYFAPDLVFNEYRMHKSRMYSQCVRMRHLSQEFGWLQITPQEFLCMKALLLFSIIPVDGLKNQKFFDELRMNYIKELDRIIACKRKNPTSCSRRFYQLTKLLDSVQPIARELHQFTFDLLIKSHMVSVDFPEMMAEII
Description: Recombinant rat thioredoxin-fused AR ligand binding domain (PanVera, 1.390 mg/mL, 48.4 kDa), which is identical to the human AR-LBD, was used for hydroxylapatite (HAP) pulldown ligand binding assays at R1881 concentrations of 0 to 1000 nM {Portigal, 2002 #86}. Initially, his-tagged-DDC protein was expressed in BL21-SI bacteria, containing the pDEST17-His-DDC plasmid, and purified using a nickel-nitrilotriacetic acid (Ni-NTA)-agarose column according to the manufacturer's protocol (Qiagen). Purified AR-LBD was diluted to a final concentration of 1 μg/mL in binding buffer (50 mM Tris pH 7.5, 10% glycerol, 0.8 M NaCl, 1 mg/mL BSA and 2 mM dithiothreitol), containing tracer 20 nM [^3H]-R1881 (NEN Life Science Products, 75.2 Ci/mmol, 1 mCi/mL). In order to minimize the use of radioactive ligand, supplemental cold R1881 was added to the assay mix to achieve the high 100 nM and 1000 nM total R1881 concentrations. Assays were carried out in the absence and presence of 0.5 μg of His-DDC protein, which was added directly to the 1 mL assay mix. Following overnight incubation at 4° C., a 50% HAP slurry (Calbiochem Fast Flow hydroxylapatite in […] pH 8.0 and 1 mM EDTA) was added to the assay, pellets were incubated on ice for 10 minutes, and then washed four times with wash buffer (40 mM Tris pH 7.5, 100 mM KCl, 1 mM EDTA and 1 mM EGTA). HAP pellets were resuspended in ethanol and bound [^3H]-R1881 was measured (disintegrations per minute, dpm) using a Beckman LS 6500 scintillation counter.
To determine non-specific binding (NSB) to the HAP matrix, control pulldown assays were carried out using an assay mix that lacked AR-LBD. […] NSB values were subtracted from sample measurements for determination of specific binding. The total dpm per assay was determined by measuring a known amount of [^3H]-R1881 and normalizing to the total assay volume (1 mL). All assays were carried out in triplicate and the pmole bound [^3H]-R1881/mg AR-LBD protein was calculated by using the measured dpm of tracer 20 nM [^3H]-R1881. Calculated values were then extrapolated to determine total ligand bound at the 10 nM, 100 nM and 1000 nM R1881 concentrations. Results were expressed as the mean total pmole bound R1881/mg AR-LBD protein (±SEM).

[10] = test system: AR; assay: Cell-based ligand binding assay in HeLa-AR cells (cytosol); set-up: species or system human
Description: HeLa-AR cells were cultured for 24-48 hours in DMEM containing 5% DCC-FBS and seeded onto 6 cm plates at a density of 1×10^6 cells/plate. After 5 hours, cells were transfected with either pDEST12.2-DDC or pDEST12.2 control vector (5 μg/plate) using Lipofectin Reagent (Invitrogen). The next day, transfection mix was changed to DMEM supplemented with 5% DCC-FBS containing increasing concentrations of [^3H]-R1881 (0-10 nM). To determine non-specific binding, hormone treatments were carried out in the presence (NSB) and absence (total binding) of excess cold 1000 nM R1881. After 24 hours of incubation with hormone, cells were harvested as described previously. […]
Cytosolic and nuclear extracts were then thawed and incubated for 6 hours with agarose beads conjugated to FLAG monoclonal antibody (Sigma, USA). […] Beads were washed with Buffer D (20 mM HEPES pH 7.9, 20% glycerol, 0.3 M KCl, 0.2 mM EDTA, 0.05% NP-40, 0.5 mM DTT, 0.5 mM PMSF) and specifically bound ligand (total binding—NSB) to the immunopreciptated FLAG-tagged AR protein was determined by measuring the levels of tritium (dpm) in bead resuspensions using a scintillation counter. All measured bound dpm values were normalized to corresponding Western blot AR protein band intensities. Results were expressed as the relative (normalized to the level of AR protein) mean bound ligand of three replicates (±SEM).

[11] = presence of hormone (0.1 nM R1881)

NCCc1c[nH]c2ccc(O)cc12 [5-HT, 5-hyroxytyrptamine]
intracellular cAMP response ([1]; 5-HT 10 minutes): did not increase cAMP levels | intracellular cAMP response [2]: did not increase cAMP levels | AR activity in the absence or presence of ligand ([3]; 0-100 nM, with or without 1 nM R1881, 24 hours): did not alter AR activity

NCCc1ccc(O)c(O)c1 [DA, dopamine]
increase in intracellular cAMP versus untreated cells ([1]; maximum 200 μM concentration, 15 minutes): ~52 fold | intracellular cAMP response [2]: did not induce a significant cAMP response | repression of ligand-dependent AR transcription ([3]; highest 200 μM concentration, 1 nM R1881, 24 hours): 2.2 fold | ligand-independent activation of AR ([3]; without R1881, 24 hours): not affected

NNCc1cccc(O)c1 [NSD-1015, 3-hydroxybenzylhydrazine]
decrease in cell growth ([4]; absence of hormone): 1.43 fold | decline in cell growth [4, 11]: 1.15 fold | decrease in cell growth ([5]; absence of hormone): 1.20 fold | decline in cell growth [5, 11]: 1.24 fold | secreted DA level [6]: 220±85 pg/mL CM | reduction of DA levels [7]: 2.6 fold | secreted DA level [7]: 3561±2032 pg/mL CM

C[C@]1(O)CC[C@H]2[C@@H]3CCC4=CC(=O)CCC4=C3C=C[C@@]21C [R1881]
minimum concentration required for activation of AR transcription ([3]; PC3 cells transfected with AR, 24 hours): 0.1 nM | minimum concentration required for activation of AR transcription [8]: 0.1 nM | available ligand bound to AR-LBD (ligand-binding efficiency) ([9]; 20 nM [3H]-R1881, absence and presence of His-DDC): about 5% | ligand-binding efficiency ([9]; 100 nM R1881, absence of DDC): 14% | total available ligand bound to AR-LBD ([9]; 100 nM R1881, with His-DDC): 24.5% | ligand-binding efficiency ([9]; 1000 nM R1881, absence of DDC): 54% | total available ligand bound to AR-LBD ([9]; 1000 nM R1881, with His-DDC): 92% | R1881 concentration required to 50% saturate total AR-LBD protein ([9]; absence of His-DDC): 883 nM | R1881 concentration required to 50% saturate total AR-LBD protein ([9]; presence of His-DDC (0.5 μg/assay)): 425 nM | bound R1881 ([9]; tracer 20 nM [3H]-R1881, AR-LBD control): 895±93 pmole bound R1881/mg AR-LBD | bound R1881 ([9]; tracer 20 nM [3H]-R1881, AR-LBD+His-DDC): 937±111 pmole bound R1881/mg AR-LBD | amount of R1881 required to reach the control Bmax ([10]; presence of DDC (overexpression)): 0.56 nM | R1881 concentration at which control Bmax occurred ([10]; vector control): 1 nM
